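Grown in 96-well plates, cells were treated for 48 hours with each compound at five concentrations. Insufficient inhibition: endpoint recorded as highest concentration tested. TGI denotes the concentration required for complete inhibition of growth.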
Experiments:
Assay in all cases: growth of human tumour cells (NCI), 48 h
[1] = system: SK-MEL-5 melanoma
[2] = system: SW-620 colon
[3] = system: A549 NSCLC
[4] = system: U251 CNS
[5] = system: NCI-H522 lung
[6] = system: SF-539 CNS
[7] = system: OVCAR-3 ovarian
[8] = system: UO-31 renal
[9] = system: HS 578T breast
[10] = system: UACC-62 melanoma
[11] = system: MOLT-4 leukemia
[12] = system: 786-0 renal
[13] = system: PC-3 prostate
[14] = system: TK-10 renal
[15] = system: SN12C renal
[16] = system: LOX IMVI melanoma
[17] = system: HCT-116 colon
[18] = system: MALME-3M melanoma
[19] = system: HT29 colon
[20] = system: T-47D breast
[21] = system: NCI-H23 lung
[22] = system: KM12 colon
[23] = system: MCF7 breast
[24] = system: M14 melanoma
[25] = system: OVCAR-5 ovarian
[26] = system: HCT-15 colon
[27] = system: SF-295 CNS
[28] = system: OVCAR-4 ovarian
[29] = system: A498 renal
[30] = system: SK-MEL-2 melanoma
[31] = system: SK-MEL-28 melanoma
[32] = system: MDA-MB-231 breast
[33] = system: MDA-MB-435
[34] = system: HL-60(TB) leukemia
[35] = system: IGROV1 ovarian
[36] = system: RPMI-8226 leukemia
[37] = system: K-562 leukemia
[38] = system: EKVX NSCLC
[39] = system: NCI-H226 lung
[40] = system: SNB-19 CNS
[41] = system: CCRF-CEM leukemia
[42] = system: DU-145 prostate
[43] = system: NCI/ADR-RES ovarian
[44] = system: OVCAR-8 ovarian
[45] = system: CAKI-1 renal
[46] = system: BT-549 breast
[47] = system: SR leukemia
[48] = system: UACC-257 melanoma
[49] = system: ACHN renal
[50] = system: SF-268 CNS
[51] = system: COLO 205 colon
[52] = system: SK-OV-3 ovarian
[53] = system: HOP-62 NSCLC
[54] = system: HCC-2998 colon
[55] = system: HOP-92 NSCLC
[56] = system: RXF 393 renal
[57] = system: NCI-H460 lung
[58] = system: SNB-75 CNS

Measured: TGI

N#CCCOc1cccc(C2(N3CCCCC3)CCCCC2)c1
> 100 µM: [1] | [2] | [3] | [4] | [5] | [6] | [7] | [8] | [9] | [10] | [11] | [12] | [13] | [14] | [15] | [16] | [17] | [18] | [19] | [20] | [21] | [22] | [23] | [24] | [25] | [26] | [27] | [28] | [29] | [30] | [31] | [32] | [33] | [34] | [35] | [36] | [37] | [38] | [39] | [40] | [41] | [42] | [43] | [44] | [45] | [46] | [47] | [48] | [49] | [50] | [51] | [52] | [53]

Cc1ccc(C2(c3ccc(C)cc3)SC(=C(C#N)C#N)c3ccccc32)cc1
> 100 µM: [1] | [2] | [3] | [4] | [6] | [7] | [54] | [8] | [9] | [10] | [11] | [12] | [13] | [14] | [55] | [15] | [17] | [56] | [18] | [19] | [20] | [21] | [22] | [23] | [24] | [25] | [26] | [27] | [29] | [30] | [31] | [32] | [33] | [34] | [35] | [37] | [38] | [39] | [40] | [41] | [42] | [43] | [44] | [46] | [47] | [49] | [57] | [50] | [52] | [53]

O=C1Cc2c([nH]c3ccccc23)C2(CC3CCCCN13)OCCO2 (stereo not given)
> 100 µM: [1] | [2] | [3] | [4] | [7] | [54] | [8] | [9] | [10] | [12] | [13] | [14] | [55] | [15] | [17] | [56] | [58] | [18] | [19] | [20] | [21] | [22] | [23] | [24] | [25] | [26] | [27] | [28] | [29] | [30] | [31] | [32] | [33] | [35] | [36] | [38] | [39] | [40] | [41] | [42] | [43] | [44] | [45] | [46] | [47] | [48] | [49] | [57] | [50] | [51] | [52] | [53]
